#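 Step 1: Grow cells in 96-well plates. Step 2: Expose to compound for 48 hours at 5 concentrations. Step 3: Interpolate endpoints linearly; if unreached, use highest concentration. TGI denotes the concentration required for complete inhibition of growth.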
# Key:
# Test in all cases: growth of human tumour cells (NCI), 48 h
# COLO 205 colon = system: COLO 205 colon
# 786-0 renal = system: 786-0 renal
# DLD-1 colon = system: DLD-1 colon
# RPMI-8226 leukemia = system: RPMI-8226 leukemia
# NCI-H23 lung = system: NCI-H23 lung
# UACC-62 melanoma = system: UACC-62 melanoma
# HCC-2998 colon = system: HCC-2998 colon
# M14 melanoma = system: M14 melanoma
# CCRF-CEM leukemia = system: CCRF-CEM leukemia
# SNB-19 CNS = system: SNB-19 CNS
# SNB-78 CNS = system: SNB-78 CNS
# SK-MEL-5 melanoma = system: SK-MEL-5 melanoma
# LXFL 529 NSCLC = system: LXFL 529 NSCLC
# DMS 114 small cell lung = system: DMS 114 small cell lung
# K-562 leukemia = system: K-562 leukemia
# HOP-62 NSCLC = system: HOP-62 NSCLC
# XF 498 CNS = system: XF 498 CNS
# A549 NSCLC = system: A549 NSCLC
# CAKI-1 renal = system: CAKI-1 renal
# HL-60(TB) leukemia = system: HL-60(TB) leukemia
# U251 CNS = system: U251 CNS
# UACC-257 melanoma = system: UACC-257 melanoma
# RXF 393 renal = system: RXF 393 renal
# KM20L2 colon = system: KM20L2 colon
# SK-MEL-28 melanoma = system: SK-MEL-28 melanoma
# NCI-H226 lung = system: NCI-H226 lung
# TK-10 renal = system: TK-10 renal
# IGROV1 ovarian = system: IGROV1 ovarian
# RXF-631 renal = system: RXF-631 renal
# OVCAR-8 ovarian = system: OVCAR-8 ovarian
# EKVX NSCLC = system: EKVX NSCLC
# HOP-18 NSCLC = system: HOP-18 NSCLC
# HCT-15 colon = system: HCT-15 colon
# HT29 colon = system: HT29 colon
# HOP-92 NSCLC = system: HOP-92 NSCLC
# A498 renal = system: A498 renal
# SF-295 CNS = system: SF-295 CNS
# M19-MEL melanoma = system: M19-MEL melanoma
# SK-OV-3 ovarian = system: SK-OV-3 ovarian
# OVCAR-4 ovarian = system: OVCAR-4 ovarian
# UO-31 renal = system: UO-31 renal
# OVCAR-3 ovarian = system: OVCAR-3 ovarian
# LOX IMVI melanoma = system: LOX IMVI melanoma
# MALME-3M melanoma = system: MALME-3M melanoma
# SF-539 CNS = system: SF-539 CNS
# OVCAR-5 ovarian = system: OVCAR-5 ovarian
# MOLT-4 leukemia = system: MOLT-4 leukemia
# SF-268 CNS = system: SF-268 CNS
# ACHN renal = system: ACHN renal
# SW-620 colon = system: SW-620 colon
# SN12C renal = system: SN12C renal
# NCI-H522 lung = system: NCI-H522 lung
# KM12 colon = system: KM12 colon
# HCT-116 colon = system: HCT-116 colon
# DMS 273 small cell lung = system: DMS 273 small cell lung
# SK-MEL-2 melanoma = system: SK-MEL-2 melanoma
# NCI-H460 lung = system: NCI-H460 lung
compound,measurement,setting,value
Cc1nc2ccccn2c1N=Nc1ccc(C(=O)NN)cc1,TGI,COLO 205 colon,> 100 µM
same,TGI,786-0 renal,> 100 µM
same,TGI,DLD-1 colon,> 100 µM
same,TGI,RPMI-8226 leukemia,> 100 µM
same,TGI,NCI-H23 lung,> 100 µM
same,TGI,UACC-62 melanoma,> 100 µM
same,TGI,HCC-2998 colon,> 100 µM
same,TGI,M14 melanoma,> 100 µM
same,TGI,CCRF-CEM leukemia,30.6 µM
same,TGI,SNB-19 CNS,> 100 µM
same,TGI,SNB-78 CNS,> 100 µM
same,TGI,SK-MEL-5 melanoma,69.1 µM
same,TGI,LXFL 529 NSCLC,> 100 µM
same,TGI,DMS 114 small cell lung,> 100 µM
same,TGI,K-562 leukemia,> 100 µM
same,TGI,HOP-62 NSCLC,> 100 µM
same,TGI,XF 498 CNS,> 100 µM
same,TGI,A549 NSCLC,> 100 µM
same,TGI,CAKI-1 renal,> 100 µM
same,TGI,HL-60(TB) leukemia,> 100 µM
same,TGI,U251 CNS,> 100 µM
same,TGI,UACC-257 melanoma,> 100 µM
same,TGI,RXF 393 renal,60.1 µM
same,TGI,KM20L2 colon,> 100 µM
same,TGI,SK-MEL-28 melanoma,> 100 µM
same,TGI,NCI-H226 lung,> 100 µM
same,TGI,TK-10 renal,> 100 µM
same,TGI,IGROV1 ovarian,89.7 µM
same,TGI,RXF-631 renal,> 100 µM
same,TGI,OVCAR-8 ovarian,> 100 µM
same,TGI,EKVX NSCLC,> 100 µM
same,TGI,HOP-18 NSCLC,> 100 µM
same,TGI,HCT-15 colon,> 100 µM
same,TGI,HT29 colon,> 100 µM
same,TGI,HOP-92 NSCLC,> 100 µM
same,TGI,A498 renal,> 100 µM
same,TGI,SF-295 CNS,> 100 µM
same,TGI,M19-MEL melanoma,> 100 µM
same,TGI,SK-OV-3 ovarian,> 100 µM
same,TGI,OVCAR-4 ovarian,> 100 µM
same,TGI,UO-31 renal,> 100 µM
same,TGI,OVCAR-3 ovarian,> 100 µM
same,TGI,LOX IMVI melanoma,> 100 µM
same,TGI,MALME-3M melanoma,> 100 µM
same,TGI,SF-539 CNS,> 100 µM
same,TGI,OVCAR-5 ovarian,> 100 µM
same,TGI,MOLT-4 leukemia,40.8 µM
same,TGI,SF-268 CNS,> 100 µM
same,TGI,ACHN renal,> 100 µM
same,TGI,SW-620 colon,> 100 µM
same,TGI,SN12C renal,> 100 µM
CCOC(=O)C12CCCC1(O)N(NC(N)=O)C(C)=C2C(=O)OC (stereo unspecified),TGI,NCI-H522 lung,> 100 µM
same,TGI,COLO 205 colon,> 100 µM
same,TGI,KM12 colon,> 100 µM
same,TGI,786-0 renal,> 100 µM
same,TGI,DLD-1 colon,> 100 µM
same,TGI,RPMI-8226 leukemia,> 100 µM
same,TGI,NCI-H23 lung,> 100 µM
same,TGI,UACC-62 melanoma,> 100 µM
same,TGI,HCC-2998 colon,> 100 µM
same,TGI,M14 melanoma,> 100 µM
same,TGI,CCRF-CEM leukemia,> 100 µM
same,TGI,SNB-19 CNS,> 100 µM
same,TGI,HCT-116 colon,> 100 µM
same,TGI,SNB-78 CNS,> 100 µM
same,TGI,DMS 273 small cell lung,> 100 µM
same,TGI,LXFL 529 NSCLC,> 100 µM
same,TGI,DMS 114 small cell lung,> 100 µM
same,TGI,K-562 leukemia,> 100 µM
same,TGI,HOP-62 NSCLC,> 100 µM
same,TGI,XF 498 CNS,> 100 µM
same,TGI,A549 NSCLC,> 100 µM
same,TGI,CAKI-1 renal,> 100 µM
same,TGI,HL-60(TB) leukemia,> 100 µM
same,TGI,U251 CNS,> 100 µM
same,TGI,UACC-257 melanoma,> 100 µM
same,TGI,KM20L2 colon,> 100 µM
same,TGI,SK-MEL-28 melanoma,> 100 µM
same,TGI,NCI-H226 lung,> 100 µM
same,TGI,TK-10 renal,> 100 µM
same,TGI,IGROV1 ovarian,> 100 µM
same,TGI,RXF-631 renal,> 100 µM
same,TGI,OVCAR-8 ovarian,> 100 µM
same,TGI,EKVX NSCLC,> 100 µM
same,TGI,HOP-18 NSCLC,> 100 µM
same,TGI,HCT-15 colon,> 100 µM
same,TGI,HT29 colon,> 100 µM
same,TGI,HOP-92 NSCLC,> 100 µM
same,TGI,A498 renal,> 100 µM
same,TGI,SF-295 CNS,> 100 µM
same,TGI,M19-MEL melanoma,> 100 µM
same,TGI,SK-OV-3 ovarian,> 100 µM
same,TGI,OVCAR-4 ovarian,> 100 µM
same,TGI,UO-31 renal,> 100 µM
same,TGI,OVCAR-3 ovarian,> 100 µM
same,TGI,LOX IMVI melanoma,> 100 µM
same,TGI,MALME-3M melanoma,> 100 µM
same,TGI,SF-539 CNS,> 100 µM
same,TGI,SK-MEL-2 melanoma,> 100 µM
same,TGI,NCI-H460 lung,> 100 µM
same,TGI,OVCAR-5 ovarian,> 100 µM
same,TGI,MOLT-4 leukemia,> 100 µM
same,TGI,SF-268 CNS,> 100 µM
same,TGI,ACHN renal,> 100 µM
same,TGI,SW-620 colon,> 100 µM
same,TGI,SN12C renal,> 100 µM

# From PubChem BioAssay (NCI)
